# Results as given in ChEMBL document CHEMBL1140691, “New type of anti-diabetic compounds from the processed leaves of Hydrangea macrophylla var. thunbergii (Hydrangeae Dulcis Folium)” (2007).
# Key:
# Assay type in all cases: functional
# 3T3-L1 [1] = assay: Increase in triglyceride levels in mouse 3T3L1 cells at 1 uM
# 3T3-L1 [2] = assay: Increase in triglyceride levels in mouse 3T3L1 cells at 3 uM
# 3T3-L1 [3] = assay: Increase in triglyceride levels in mouse 3T3L1 cells at 10 uM
# 3T3-L1 [4] = assay: Increase in triglyceride levels in mouse 3T3L1 cells at 30 uM
# 3T3-L1 [5] = assay: Increase in triglyceride levels in mouse 3T3L1 cells at 100 uM
# 3T3-L1 [6] = assay: Increase in adiponectin release in mouse 3T3L1 cells at 3 uM on day 4 by ELISA
# 3T3-L1 [7] = assay: Increase in adiponectin release in mouse 3T3L1 cells at 10 uM on day 4 by ELISA
# 3T3-L1 [8] = assay: Increase in adiponectin release in mouse 3T3L1 cells at 30 uM on day 4 by ELISA
# 3T3-L1 [9] = assay: Increase in adiponectin release in mouse 3T3L1 cells at 100 uM on day 4 by ELISA
# 3T3-L1 [10] = assay: Increase in adiponectin release in mouse 3T3L1 cells at 3 uM on day 6 by ELISA
# 3T3-L1 [11] = assay: Increase in adiponectin release in mouse 3T3L1 cells at 10 uM on day 6 by ELISA
# 3T3-L1 [12] = assay: Increase in adiponectin release in mouse 3T3L1 cells at 30 uM on day 6 by ELISA
# Mus musculus [13] = assay: Decrease in blood glucose levels in KKAy mouse at 200 mg/kg, po after 1 week
# Mus musculus [14] = assay: Decrease in blood glucose levels in KKAy mouse at 100 mg/kg, po after 2 weeks
# Mus musculus [15] = assay: Decrease in blood glucose levels in KKAy mouse at 200 mg/kg, po after 2 weeks
# Mus musculus [16] = assay: Effect on blood triglyceride levels in KKAy mouse at 100 mg/kg, po
# Mus musculus [17] = assay: Effect on blood triglyceride levels in KKAy mouse at 200 mg/kg, po
# Mus musculus [18] = assay: Effect on blood triglyceride levels in KKAy mouse at 100 mg/kg, po after 1 week
# Mus musculus [19] = assay: Effect on blood triglyceride levels in KKAy mouse at 200 mg/kg, po after 1 week
# Mus musculus [20] = assay: Effect on blood triglyceride levels in KKAy mouse at 100 mg/kg, po after 2 weeks
# Mus musculus [21] = assay: Effect on blood triglyceride levels in KKAy mouse at 200 mg/kg, po after 2 weeks
# Mus musculus [22] = assay: Decrease in blood free fatty acid levels in KKAy mouse at 100 mg/kg, po
# Mus musculus [23] = assay: Decrease in blood free fatty acid levels in KKAy mouse at 200 mg/kg, po
# Mus musculus [24] = assay: Decrease in blood free fatty acid levels in KKAy mouse at 100 mg/kg, po after 1 week
# Mus musculus [25] = assay: Decrease in blood free fatty acid levels in KKAy mouse at 200 mg/kg, po after 1 week
# Mus musculus [26] = assay: Decrease in blood free fatty acid levels in KKAy mouse at 100 mg/kg, po after 2 weeks
# Mus musculus [27] = assay: Decrease in blood free fatty acid levels in KKAy mouse at 200 mg/kg, po after 2 weeks
# 3T3-L1 [28] = assay: Increase in adiponectin release in mouse 3T3L1 cells at 100 uM on day 6 by ELISA
# 3T3-L1 [29] = assay: Increase in adiponectin gene expression in mouse 3T3L1 cells at 30 uM after 2 days relative to beta-actin mRNA expression
# 3T3-L1 [30] = assay: Increase in adiponectin gene expression in mouse 3T3L1 cells at 100 uM after 2 days relative to beta-actin mRNA expression
# 3T3-L1 [31] = assay: Increase in PPARgamma2 gene expression in mouse 3T3L1 cells at 30 uM after 2 days relative to beta-actin mRNA expression
# 3T3-L1 [32] = assay: Increase in PPARgamma2 gene expression in mouse 3T3L1 cells at 100 uM after 2 days relative to beta-actin mRNA expression
# 3T3-L1 [33] = assay: Decrease in IL6 gene expression in mouse 3T3L1 cells at 30 uM after 2 days relative to beta-actin mRNA expression
# 3T3-L1 [34] = assay: Decrease in IL6 gene expression in mouse 3T3L1 cells at 100 uM after 2 days relative to beta-actin mRNA expression
# 3T3-L1 [35] = assay: Increase in GLUT4 gene expression in mouse 3T3L1 cells at 30 uM after 2 days relative to beta-actin mRNA expression
# 3T3-L1 [36] = assay: Increase in GLUT4 gene expression in mouse 3T3L1 cells at 100 uM after 2 days relative to beta-actin mRNA expression
# 3T3-L1 [37] = assay: Increase in 2-Deoxyglucose-uptake in mouse 3T3L1 cells at 1 uM by liquid scintillation counter
# 3T3-L1 [38] = assay: Increase in 2-Deoxyglucose-uptake in mouse 3T3L1 cells at 3 uM by liquid scintillation counter
# 3T3-L1 [39] = assay: Increase in 2-Deoxyglucose-uptake in mouse 3T3L1 cells at 10 uM by liquid scintillation counter
# 3T3-L1 [40] = assay: Increase in 2-Deoxyglucose-uptake in mouse 3T3L1 cells at 30 uM by liquid scintillation counter
# 3T3-L1 [41] = assay: Increase in 2-Deoxyglucose-uptake in mouse 3T3L1 cells at 100 uM by liquid scintillation counter
# Mus musculus [42] = assay: Decrease in blood glucose levels in KKAy mouse at 100 mg/kg, po
# Mus musculus [43] = assay: Decrease in blood glucose levels in KKAy mouse at 200 mg/kg, po
# Mus musculus [44] = assay: Decrease in blood glucose levels in KKAy mouse at 100 mg/kg, po after 1 week
# 3T3-L1 [45] = assay: Increase in adiponectin gene expression in mouse 3T3L1 cells at 3 uM after 2 days relative to beta-actin mRNA expression
# 3T3-L1 [46] = assay: Increase in PPARgamma2 gene expression in mouse 3T3L1 cells at 3 uM after 2 days relative to beta-actin mRNA expression
# 3T3-L1 [47] = assay: Decrease in IL6 gene expression in mouse 3T3L1 cells at 3 uM after 2 days relative to beta-actin mRNA expression
# 3T3-L1 [48] = assay: Increase in GLUT4 gene expression in mouse 3T3L1 cells at 3 uM after 2 days relative to beta-actin mRNA expression
structure (smiles),measurement,setting,value
COc1ccc([C@H]2Cc3cccc(O[C@@H]4O[C@H](CO)[C@@H](O)[C@H](O)[C@H]4O)c3C(=O)O2)cc1O,Activity,3T3-L1 [1],3.6%
same,Activity,3T3-L1 [2],8.7%
same,Activity,3T3-L1 [3],-1.5%
same,Activity,3T3-L1 [4],-3%
same,Activity,3T3-L1 [5],6.6%
O=C1OC(c2ccc(O)cc2)Cc2cccc(O[C@@H]3O[C@H](CO)[C@@H](O)[C@H](O)[C@H]3O)c21 (some centres not stated),Activity,3T3-L1 [1],11.1%
same,Activity,3T3-L1 [2],11.2%
same,Activity,3T3-L1 [3],1.2%
same,Activity,3T3-L1 [4],10.5%
same,Activity,3T3-L1 [5],9.2%
O=C(O)c1c(O)cccc1/C=C/c1ccc(O)cc1 [HYDRANGEAIC ACID],Activity,3T3-L1 [1],2.2%
same,Activity,3T3-L1 [2],11.7%
same,Activity,3T3-L1 [3],11.1%
same,Activity,3T3-L1 [4],27.3%
same,Activity,3T3-L1 [5],41.2%
O=C1OC(c2ccc(O)cc2)Cc2cccc(O)c21 (configuration not stated) [HYDRANGENOL],Activity,3T3-L1 [1],14.4%
same,Activity,3T3-L1 [2],19.2%
same,Activity,3T3-L1 [3],17.7%
same,Activity,3T3-L1 [4],29.9%
same,Activity,3T3-L1 [5],41.3%
same,Activity,3T3-L1 [6],22.3 ng/mL
same,Activity,3T3-L1 [7],22.8 ng/mL
same,Activity,3T3-L1 [8],27.4 ng/mL
same,Activity,3T3-L1 [9],33 ng/mL
same,Activity,3T3-L1 [10],68.2 ng/mL
same,Activity,3T3-L1 [11],84.2 ng/mL
same,Activity,3T3-L1 [12],94 ng/mL
same,Activity,Mus musculus [13],397.5 mg/dL
same,Activity,Mus musculus [14],422.7 mg/dL
same,Activity,Mus musculus [15],411.2 mg/dL
same,Activity,Mus musculus [16],332.1 mg/dL
same,Activity,Mus musculus [17],362.8 mg/dL
same,Activity,Mus musculus [18],429.3 mg/dL
same,Activity,Mus musculus [19],413.8 mg/dL
same,Activity,Mus musculus [20],483.9 mg/dL
same,Activity,Mus musculus [21],428.8 mg/dL
same,Activity,Mus musculus [22],0.96 mEq/L
same,Activity,Mus musculus [23],1.01 mEq/L
same,Activity,Mus musculus [24],0.91 mEq/L
same,Activity,Mus musculus [25],0.81 mEq/L
same,Activity,Mus musculus [26],1.07 mEq/L
same,Activity,Mus musculus [27],0.89 mEq/L
same,Activity,3T3-L1 [28],99.8 ng/mL
same,Ratio,3T3-L1 [29],1.98
same,Ratio,3T3-L1 [30],2.46
same,Ratio,3T3-L1 [31],1.92
same,Ratio,3T3-L1 [32],2.65
same,Ratio,3T3-L1 [33],0.78
same,Ratio,3T3-L1 [34],0.51
same,Ratio,3T3-L1 [35],1.12
same,Ratio,3T3-L1 [36],1.38
same,Activity,3T3-L1 [37],117%
same,Activity,3T3-L1 [38],160%
same,Activity,3T3-L1 [39],221%
same,Activity,3T3-L1 [40],245%
same,Activity,3T3-L1 [41],302%
same,Activity,Mus musculus [42],336.3 mg/dL
same,Activity,Mus musculus [43],336 mg/dL
same,Activity,Mus musculus [44],389.1 mg/dL
COc1ccc([C@H]2Cc3cccc(O)c3C(=O)O2)cc1O [PHYLLODULCIN],Activity,3T3-L1 [1],-0.7%
same,Activity,3T3-L1 [2],12.8%
same,Activity,3T3-L1 [3],9.8%
same,Activity,3T3-L1 [4],23.8%
same,Activity,3T3-L1 [5],20.3%
O=c1oc(-c2ccc(O)c(O)c2)cc2cccc(O)c12 [THUNBERGINOL A],Activity,3T3-L1 [1],8%
same,Activity,3T3-L1 [2],17.5%
same,Activity,3T3-L1 [3],19.6%
same,Activity,3T3-L1 [4],15.7%
same,Activity,3T3-L1 [5],-27.6%
O=c1oc(-c2ccc(O)c(O)c2)cc2cc(O)cc(O)c12 [THUNBERGINOL B],Activity,3T3-L1 [1],-3.8%
same,Activity,3T3-L1 [2],-8%
same,Activity,3T3-L1 [3],-7.8%
same,Activity,3T3-L1 [4],7.2%
same,Activity,3T3-L1 [5],54.1%
O=C1OC(c2ccc(O)cc2)Cc2cc(O)cc(O)c21 (configuration not stated) [THUNBERGINOL C],Activity,3T3-L1 [1],-9.3%
same,Activity,3T3-L1 [2],-7.5%
same,Activity,3T3-L1 [3],-11.1%
same,Activity,3T3-L1 [4],-17.6%
same,Activity,3T3-L1 [5],1.4%
O=C1OC(c2ccc(O)c(O)c2)Cc2cc(O)cc(O)c21 (configuration not stated) [THUNBERGINOL D],Activity,3T3-L1 [1],-1.2%
same,Activity,3T3-L1 [2],2.8%
same,Activity,3T3-L1 [3],-0.8%
same,Activity,3T3-L1 [4],4%
same,Activity,3T3-L1 [5],12.5%
COc1ccc([C@H]2Cc3cc(O)cc(O)c3C(=O)O2)cc1O [THUNBERGINOL E],Activity,3T3-L1 [1],-6.3%
same,Activity,3T3-L1 [2],-7.5%
same,Activity,3T3-L1 [3],-8%
same,Activity,3T3-L1 [4],3.4%
same,Activity,3T3-L1 [5],-4%
O=C1O/C(=C\c2ccc(O)c(O)c2)c2cccc(O)c21 [THUNBERGINOL F],Activity,3T3-L1 [1],2.1%
same,Activity,3T3-L1 [2],6.2%
same,Activity,3T3-L1 [3],6.2%
same,Activity,3T3-L1 [4],8.3%
same,Activity,3T3-L1 [5],-54.8%
Cc1c(C)c2c(c(C)c1O)CCC(C)(COc1ccc(CC3SC(=O)NC3=O)cc1)O2 (configuration not stated) [TROGLITAZONE],Activity,3T3-L1 [1],33.8%
same,Activity,3T3-L1 [2],40.5%
same,Activity,3T3-L1 [3],39.6%
same,Activity,3T3-L1 [8],43 ng/mL
same,Activity,3T3-L1 [12],101.2 ng/mL
same,Activity,Mus musculus [16],329.4 mg/dL
same,Activity,Mus musculus [18],303.4 mg/dL
same,Activity,Mus musculus [20],464.6 mg/dL
same,Activity,Mus musculus [22],0.95 mEq/L
same,Activity,Mus musculus [24],0.62 mEq/L
same,Activity,Mus musculus [26],0.8 mEq/L
same,Ratio,3T3-L1 [45],3.01
same,Ratio,3T3-L1 [46],1.09
same,Ratio,3T3-L1 [47],0.89
same,Ratio,3T3-L1 [48],2.92
same,Activity,3T3-L1 [38],388%
same,Activity,Mus musculus [42],307.5 mg/dL
same,Activity,Mus musculus [44],293.3 mg/dL
